Assay results: patent US8283353B2, “Fused ring compound and use thereof” (Takeda Pharmaceutical Company Limited, priority 2009, dated 2012)

Key:
human PPARγ = biological target: T1, human PPARγ (Homo sapiens, UniProt P37231); assay: PPARγ agonistic activity: luciferase reporter assay in PPARγ:RXRα:4ERPP/CHO-K1 cells; format: cell-based; conditions: CHO-K1, test compound 10^−6 M; luciferase activity of control compound X (1 μM) = 100%, non-administration group = 0%
T1 construct: expressed in transfected cells
T1 sequence (P37231 1-477 isoform P37231-2): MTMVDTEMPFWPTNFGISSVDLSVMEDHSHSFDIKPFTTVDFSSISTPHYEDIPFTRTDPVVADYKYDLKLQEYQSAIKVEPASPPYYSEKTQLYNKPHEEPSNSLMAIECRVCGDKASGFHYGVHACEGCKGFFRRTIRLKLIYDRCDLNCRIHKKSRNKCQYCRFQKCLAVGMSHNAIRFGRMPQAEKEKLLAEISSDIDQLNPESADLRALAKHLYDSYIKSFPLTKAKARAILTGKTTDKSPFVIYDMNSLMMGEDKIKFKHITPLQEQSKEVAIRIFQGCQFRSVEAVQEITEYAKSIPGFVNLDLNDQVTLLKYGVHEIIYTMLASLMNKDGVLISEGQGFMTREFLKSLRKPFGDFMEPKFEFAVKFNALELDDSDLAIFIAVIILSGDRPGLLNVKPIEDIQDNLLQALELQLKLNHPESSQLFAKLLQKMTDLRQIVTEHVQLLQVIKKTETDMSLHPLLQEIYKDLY
T1 sequence (P19793 1-462 partner): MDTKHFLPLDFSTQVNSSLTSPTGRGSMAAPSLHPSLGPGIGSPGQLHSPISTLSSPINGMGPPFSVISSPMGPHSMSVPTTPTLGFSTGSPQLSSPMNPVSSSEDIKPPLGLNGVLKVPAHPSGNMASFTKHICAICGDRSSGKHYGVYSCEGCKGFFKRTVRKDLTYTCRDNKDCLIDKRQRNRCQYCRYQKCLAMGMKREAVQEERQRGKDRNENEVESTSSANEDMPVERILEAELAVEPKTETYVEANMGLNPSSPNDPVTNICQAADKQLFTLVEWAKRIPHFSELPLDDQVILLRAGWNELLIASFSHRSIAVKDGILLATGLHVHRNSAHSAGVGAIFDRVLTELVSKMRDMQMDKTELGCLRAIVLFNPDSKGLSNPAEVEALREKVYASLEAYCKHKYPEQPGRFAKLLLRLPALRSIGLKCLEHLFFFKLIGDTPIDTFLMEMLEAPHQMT
From the text: A CHO-K1 cell cultured in a 150 cm^2 cell culture flask [manufactured by Corning Costar Corporation, USA] comprising Ham's F12 medium [manufactured by INVITROGEN, USA] supplemented with 10% fetal bovine serum [manufactured by INVITROGEN, USA] was taken off by treating with 0.5 g/L trypsin-0.2 g/L EDTA (ethylenediamine tetraacetate) [manufactured by Life Technologies, Inc., USA], and then the cell was washed with PBS (Phosphate-buffered saline) [manufactured by INVITROGEN, USA], centrifuged (1000 rpm, 5 minutes) and suspended in PBS. Subsequently, DNA was introduced into the cell under the conditions shown below using GENE PULSER [manufactured by Bio-Rad Laboratories, USA].
Namely, to a cuvette having a 0.4 cm gap were added 8×10^6 cells and 10 μg of plasmid pVgRXR2-hPPARγ obtained in the above-mentioned (4) and 10 μg of reporter plasmid pGL3-4ERPP-TK neo obtained in the above-mentioned (3), which was subjected to electroporation at the voltage of 0.25 kV under the capacitance of […] Subsequently, the cell was transferred into a F12 medium comprising 10% fetal bovine serum and cultured for 24 hours, and then the cell was taken off again and centrifuged. Then, the pellet was suspended in Ham's F12 medium comprising 10% fetal bovine serum supplemented with 500 μg/ml of Geneticin [manufactured by INVITROGEN, USA] and 250 μg/ml of Zeocin [manufactured by INVITROGEN, USA]. The obtained suspension was diluted to the density of 10^4 cells/ml and inoculated in a 96-well plate [manufactured by Corning Costar Corporation, USA], which was cultured in a CO2 gas incubator at 37° C., whereby obtaining a Geneticin- and Zeocin-resistant transformant.
Subsequently, after the transformed cell line thus obtained was cultured in a 24-well plate [manufactured by Corning Costar Corporation, USA], a cell line in which expression of the luciferase was induced, i.e., PPARγ:RXRα:4ERPP/CHO-K1 cell was selected by the addition of 10 μM pioglitazone hydrochloride.
PPARγ:RXRα:4ERPP/CHO-K1 cells obtained in the above-mentioned (5) were cultured in F12 medium [manufactured by INVITROGEN, USA] containing 10% fetal bovine serum [manufactured by MOREGATE, Australia], seeded in a 96 well half-area white plate [manufactured by Corning Coster Corporation, USA] at 5×10^3 cells/well, and cultured in a CO2 incubator at 37° C. overnight.
Then, the medium was removed from the 96 well half-area white plate, hamF12 medium containing 0.1% fatty acid-free bovine serum albumin (BSA) (45 μl) and a test compound (5 μl) were added, and the mixture was cultured in the CO2 incubator at 37° C. for 1 day. After removing the medium, Picagene 7.5 [manufactured by Dai Nippon Inki, Japan] (20 μl) diluted 2-fold with HBSS (HANKS' BALANCED SALT SOLUTION) [manufactured by BIO […], USA] was added, and the mixture was stirred. Using 1420 ARVO Multilabel Counter [manufactured by PerkinElmer, USA], luciferase activity was measured. The percentage (%) was calculated from the luciferase activity of the test compound when the luciferase activity of the control compound (compound X: 5-[3-(4-{[2-(2-furyl)-5-methyl-1,3-oxazol-4-yl]methoxy}-3-methoxyphenyl)propyl]-1,3-oxazolidine-2,4-dione) (1 μM) was taken as 100% and the luciferase activity of the test compound non-administration group was taken as 0%.

human AT1 receptor = biological target: T2, human AT1 receptor (Homo sapiens, UniProt P30556); assay: AT1 receptor antagonistic activity: [125I]-angiotensin II binding assay on human AT1 receptor-expressing CHO-K1 cellular membrane fraction; conditions: 22.5 pM [125I]-angiotensin II, 1 hr room temperature
T2 construct: expressed in transfected cells; membrane fraction
T2 sequence (P30556 1-359): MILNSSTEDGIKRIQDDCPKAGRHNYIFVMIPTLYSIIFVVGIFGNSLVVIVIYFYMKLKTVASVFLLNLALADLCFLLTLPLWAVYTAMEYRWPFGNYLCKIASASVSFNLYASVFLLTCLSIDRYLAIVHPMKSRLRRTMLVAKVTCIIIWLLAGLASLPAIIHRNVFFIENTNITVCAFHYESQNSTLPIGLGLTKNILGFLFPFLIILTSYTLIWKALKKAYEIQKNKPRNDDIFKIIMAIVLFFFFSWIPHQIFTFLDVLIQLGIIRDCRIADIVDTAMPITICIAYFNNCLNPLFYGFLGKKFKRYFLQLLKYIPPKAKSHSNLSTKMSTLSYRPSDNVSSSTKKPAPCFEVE
Procedure: CHO-K1 cell (RIKEN, Japan) capable of stable expression of human AT1 receptor was cultured, recovered, suspended in homogenize buffer (10 mM NaHCO3 (pH 7.4), 5 mM EDTA, 1× Complete EDTA free) [manufactured by Roche, Switzerland], and homogenized. The homogenate was centrifuged at low-speed (900×g, 10 min, 4° C.), and the supernatant was recovered and ultracentrifuged (90,000×g, 1 hr, 4° C.). The supernatant was discarded, and the pellets were resuspended in suspension buffer (50 mM Tris (pH 7.4), 1 mM EDTA, 1× Complete EDTA free).
(9 μg) in the presence of AT1 membrane and test compound in 100 μl, (total reaction volume) of reaction buffer (50 mM Tris (pH 7.4), 10 mM MgCl2 supplemented or not supplemented with 0.3 mg/mL fatty acid-free bovine serum albumin [manufactured by Wako Pure Chemical Industries, Ltd., Japan]). The reaction mixture was incubated in 96 well polypropylene plate for 1 hr at room temperature, and the reaction was quenched by rapid filtration (96 well cell harvester) through a GF/C filter treated with wash buffer (50 mM Tris (pH 7.4)). Subsequently, the filter was washed 5 times with 0.3 mL of ice-cooled wash buffer. […] Total binding was measured in the presence of 1% DMSO and nonspecific binding was measured in the presence of […] Candesartan.

activation at 1 µM (human PPARγ) | IC50 (human AT1 receptor) | Structure (SMILES)
32% | – | CCCc1c(Cc2ccc(-c3ccccc3-c3noc(=O)[nH]3)cc2)c(=O)n([C@H]2CC[C@H](OCC(C)(C)O)CC2)c2ncnn12 [Example 381, 4-[trans-4-(2-hydroxy-2-methylpropoxy)cyclohexyl]-6-{[2′-(5-oxo-4,5-dihydro-1,2,4-oxadiazol-3-yl)biphenyl-4-yl]methyl}-7-propyl[1,2,4]triazolo[1,5-a]pyrimidin-5(4H)-one]
37% | – | CCCc1c(Cc2ccc(-c3ccccc3-c3noc(=O)[nH]3)cc2)c(=O)n([C@H]2CC[C@@H](OCC(C)(C)O)CC2)c2ncnn12 [Example 158, 4-[cis-4-(2-hydroxy-2-methylpropoxy)cyclohexyl]-6-{[2′-(5-oxo-4,5-dihydro-1,2,4-oxadiazol-3-yl)biphenyl-4-yl]methyl}-7-propyl[1,2,4]triazolo[1,5-a]pyrimidin-5(4H)-one]
28% | – | CCCc1c(Cc2ccc(-c3ccccc3-c3noc(=O)[nH]3)cc2F)c(=O)n([C@H]2C[C@@H](OCC(C)(C)O)C2)c2nc(C)nn12 [Example 404, 6-{[3-fluoro-2′-(5-oxo-4,5-dihydro-1,2,4-oxadiazol-3-yl)biphenyl-4-yl]methyl}-4-[cis-3-(2-hydroxy-2-methylpropoxy)cyclobutyl]-2-methyl-7-propyl[1,2,4]triazolo[1,5-a]pyrimidin-5(4H)-one]
16% | – | CCCc1c(Cc2ccc(-c3ccccc3-c3noc(=O)[nH]3)cc2)c(=O)n([C@H]2CC[C@H](OCC(C)O)CC2)c2ccnn12 (single isomer, unassigned) [Example 440, 4-[trans-4-(2-hydroxypropoxy)cyclohexyl]-6-{[2′-(5-oxo-4,5-dihydro-1,2,4-oxadiazol-3-yl)biphenyl-4-yl]methyl}-7-propylpyrazolo[1,5-a]pyrimidin-5(4H)-one (optically active form, retention time: short)]

More lines, now with the values behind:

Structure (SMILES) | activation at 1 µM (human PPARγ) | IC50 (human AT1 receptor)
CCCc1c(Cc2ccc(-c3ccccc3-c3noc(=O)[nH]3)cc2F)c(=O)n(C2CCOC2)c2nc(C)nn12 (stereo not shown) [Example 120, 6-{[3-fluoro-2′-(5-oxo-4,5-dihydro-1,2,4-oxadiazol-3-yl)biphenyl-4-yl]methyl}-2-methyl-7-propyl-4-(tetrahydrofuran-3-yl)[1,2,4]triazolo[1,5-a]pyrimidin-5(4H)-one] | 18% | –
CCCc1c(Cc2ccc(-c3ccccc3-c3noc(=O)[nH]3)cc2F)c(=O)n([C@H]2C[C@H](OCC(C)(C)O)C2)c2nc(C)nn12 [Example 403, 6-{[3-fluoro-2′-(5-oxo-4,5-dihydro-1,2,4-oxadiazol-3-yl)biphenyl-4-yl]methyl}-4-[trans-3-(2-hydroxy-2-methylpropoxy)cyclobutyl]-2-methyl-7-propyl[1,2,4]triazolo[1,5-a]pyrimidin-5(4H)-one] | 17% | –
CCCCc1c(Cc2ccc(-c3ccccc3-c3noc(=O)[nH]3)cc2)c(=O)n(C2CCOC(C)C2)c2ncnn12 (stereo not shown) [Example 160, 7-butyl-4-(2-methyltetrahydro-2H-pyran-4-yl)-6-{[2′-(5-oxo-4,5-dihydro-1,2,4-oxadiazol-3-yl)biphenyl-4-yl]methyl}[1,2,4]triazolo[1,5-a]pyrimidin-5(4H)-one] | – | 1.3 nM
CCCc1c(Cc2ccc(-c3ccccc3-c3noc(=O)[nH]3)cc2)c(=O)n([C@H]2CC[C@H](OCC(C)(C)O)CC2)c2ccnn12 [Example 413, 4-[trans-4-(2-Hydroxy-2-methylpropoxy)cyclohexyl]-6-{[2′-(5-oxo-4,5-dihydro-1,2,4-oxadiazol-3-yl)biphenyl-4-yl]methyl}-7-propylpyrazolo[1,5-a]pyrimidin-5(4H)-one] | 25% | –
CCCc1c(Cc2ccc(-c3ccccc3-c3noc(=O)[nH]3)cc2)c(=O)n([C@H]2CC[C@H](OC(C)C(C)(C)O)CC2)c2ncnn12 (single isomer, unassigned) [Example 318, 4-[trans-4-(2-hydroxy-1,2-dimethylpropoxy)cyclohexyl]-6-{[2′-(5-oxo-4,5-dihydro-1,2,4-oxadiazol-3-yl)biphenyl-4-yl]methyl}-7-propyl[1,2,4]triazolo[1,5-a]pyrimidin-5(4H)-one (retention time: short)] | – | 1.8 nM
CCCc1c(Cc2ccc(-c3ccccc3-c3noc(=O)[nH]3)cc2)c(=O)n([C@H]2CC[C@H](OCC(C)O)CC2)c2ccnn12 (relative stereo) [Example 419, 4-[trans-4-(2-hydroxypropoxy)cyclohexyl]-6-{[2′-(5-oxo-4,5-dihydro-1,2,4-oxadiazol-3-yl)biphenyl-4-yl]methyl}-7-propylpyrazolo[1,5-a]pyrimidin-5(4H)-one] | 21% | –
